The target in this assay is T1, RIPK1 (receptor interacting serine/threonine-protein kinase 1) (Homo sapiens, UniProt Q13546).
T1 construct: endogenous untagged full-length protein in unprocessed human whole blood of healthy donors
T1 sequence (Q13546 1-671): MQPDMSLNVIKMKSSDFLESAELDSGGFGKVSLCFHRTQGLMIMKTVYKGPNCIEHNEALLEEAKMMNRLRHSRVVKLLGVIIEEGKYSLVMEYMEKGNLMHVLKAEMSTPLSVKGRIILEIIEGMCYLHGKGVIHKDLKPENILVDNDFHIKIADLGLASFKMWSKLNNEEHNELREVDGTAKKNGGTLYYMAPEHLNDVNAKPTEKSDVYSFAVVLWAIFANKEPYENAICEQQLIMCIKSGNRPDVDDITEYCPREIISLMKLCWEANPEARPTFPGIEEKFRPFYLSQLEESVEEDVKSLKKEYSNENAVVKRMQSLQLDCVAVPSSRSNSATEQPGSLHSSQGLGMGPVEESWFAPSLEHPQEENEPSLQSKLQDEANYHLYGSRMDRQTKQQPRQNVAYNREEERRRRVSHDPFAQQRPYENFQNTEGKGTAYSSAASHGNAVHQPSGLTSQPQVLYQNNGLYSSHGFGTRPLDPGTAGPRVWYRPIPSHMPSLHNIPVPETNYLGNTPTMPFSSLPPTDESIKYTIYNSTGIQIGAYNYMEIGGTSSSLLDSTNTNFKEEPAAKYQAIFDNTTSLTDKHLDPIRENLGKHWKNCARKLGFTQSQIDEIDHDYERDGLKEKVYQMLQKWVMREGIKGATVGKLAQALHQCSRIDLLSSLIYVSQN
Briefly: MSD TEAR1 occupancy immunoassay, human whole blood. In kind it is cell-based. The settings on record: 1 h at 37 °C with compound, no heating; N=1 donor; unreliable. The text has this:
MSD TEAR1 occupancy immunoassay, human whole blood on RIPK1 (receptor interacting serine/threonine-protein kinase 1)

A word on the EC50: it is the concentration at which the effect is half-maximal.

Turning to `COc1ccc(-n2c(SCC#N)nc3sc4c(c3c2=O)CCCC4)cc1` [necrostatin 5], the EC50 was determined as 340 nM.

Source of the values: doi:10.1101/2023.10.02.560523v1, “Quantitative target engagement of RIPK1 in human whole blood via the cellular thermal shift assay for potential pre-clinical and clinical applications” (biorxiv, 2023).
